The record followed here is patent US20070202487A1, “Assay for phospholipidosis” (Cytokinetics, Inc., A Delaware Corporation, priority 2006, published 2007).

Like-named read-outs stand apart in the source and are kept apart here.

In series [1] the test system is hepatocytes. As for the experimental part:
As described further below, in certain embodiments, the number of bright and/or punctate regions in the lysosomal marker image is used as an indication of phospholipidosis.
An exemplary procedure for preparing hepatocyte cultures will now be described. Specifically, the procedure involves the use of primary rat hepatocytes as follows:
11. Twenty three thousand cells/well are plated in a 96 flat well plate pre-coated with collagen I (BD Biosciences, San Jose, Calif. or CellzDirect, Tucson, Ariz.). The plates are incubated at 37° C./5% CO2 for two hours. At the end of the two hour incubation, plating medium is aspirated and cold Hepatozyme medium containing 250 micrograms/ml of Matrigel (BD Biosciences) is added, and the plates are incubated overnight.
The following example is a procedure for fixing and staining primary rat hepatocytes to visualize nuclei, lysotracker, and Alexa 647 nm succinimidyl ester reagent (A647SE). A647SE is used to segment individual hepatocytes within an image. • 1) At 24 hr after compound addition to cells, 50 ul of Hepatozyme medium (prewarmed to 37° C.) containing 187.5 nM of lysotracker dye is added to each well. Plates are placed back to incubator for 30 min, then 150 μl of fix solution (8% paraformaldehyde, in 1× PBS) and incubate at room temperature for 30 min. • 2) Aspirate the fix solution, and add 350 μl of wash buffer (1× PBS, 0.02% Triton X-100) to each well. Aspirate and dispense wash buffer 2 times. • 3) Aspirate off the wash buffer, and add 100 ul per well of A647SE mix: 0.5 μg/ml A647SE (stock 10 mg/ml) and 1:1000 dilution of Hoechst 33342 (stock 5 mg/ml) in wash buffer. Incubate at room temperature for one hour in the dark. • 4) Aspirate the staining solution, and add 350 μl of wash buffer (1× PBS, […]) to each well. Aspirate and dispense wash buffer 2 times. Leave the last wash buffer in the well. • 5) Seal the plate and store at room temperature in the dark prior to imaging.
In certain embodiments, a stimulus response curve may be generated for a stimulus of interest. In certain embodiments, the stimulus response curve plots the feature or features used to characterize phospholipidosis (e.g., granularity or mean intensity) against concentrations of a stimulus.

The test system of series [2] is hepatocytes. The experiment in a line: Cell death of hepatocytes treated with compound. In kind it is cell-based. Conditions: Rattus norvegicus, Hepatocyte, arrow in FIG. 5A.

Consider `C[C@H](CCC(=O)NCCS(=O)(=O)O)[C@H]1CC[C@H]2[C@@H]3CC[C@@H]4C[C@H](O)CC[C@]4(C)[C@H]3CC[C@]12C` [Taurolithocholate, taurolithocholate], for which, in the series with hepatocytes [1] (at several concentrations below EC50 of cell death, FIG. 2B, versus DMSO control), the “proportion of bright/punctate cells (LysoTracker images)” value was “decrease”.

What is called IC50 is the midpoint of a concentration-inhibition curve. On to `CN(C)CCCN1c2ccccc2Sc2ccc(Cl)cc21` [chlorpromazine], for which, in the series with hepatocytes [1], the “induction of phospholipidosis as concluded from the response curves” value was “induced phospholipidosis”, the “mean intensity of the LysoTracker marker (per-cell basis) versus concentration” value is “increases”, the “proportion of bright/punctate cells (LysoTracker images)” value was “increase” and the “total granularity versus concentration” value is recorded as “spikes”. The half-inhibitory concentration (IC50) with hepatocytes [2] came out at 25 µM.
